{"source": "patent US10722518B2", "about": "“Oxazine derivative for use in the treatment or prevention of cerebral amyloid angiopathy” (Novartis AG, priority 2016, dated 2020)", "key": {"[1]": {"conditions": "both, APOE4-TR, mouse, in vivo", "description": "Vehicle or compound was given by oral administration in a volume of 10 ml/kg once. Vehicle: 0.1% Tween80 in 0.5% Methylcellulose in water.\nThe right brain was fixed in 4% paraformaldehyde, washed in PBS and then embedded in paraffin for possible future histological analyses."}, "[2]": {"test": "13-week oral safety study in aged APP23 mice: plasma and brain concentrations of Compound 1 (toxicokinetics)", "format": "in vivo", "conditions": "female, APP23, mouse, 0.3 g/kg food", "description": "(§1) Sections of brain were collected at necropsy from all scheduled animals. […] Rest of the brain was fixed in 10% neutral-buffered formalin.\nBlood was obtained from all the animals at necropsy. Approximately 0.3 mL of whole blood was collected after euthanasia from the vena cava into tubes containing EDTA as anticoagulant. The tubes were placed in ice water during the sampling period. Plasma was separated thereafter by centrifugation (10 min, 1270 G, +4° C.) and transferred to one uniquely labelled clear tube (1.8 mL NUNC 2D coded tubes from Thermo) and frozen at −70° C. or below.\nAbout 100 to 200 mg of brain tissue were collected, weighed into 1.8 mL NUNC 2D coded tubes from Thermo, and frozen at −70° C. or below."}, "[3]": {"system": "APP23 mice", "test": "13-week oral safety study in aged APP23 mice: post-mortem macroscopic and brain microscopic examination (H&E, Perls' Prussian blue)", "format": "in vivo, mouse", "excerpt": "as §1\nFour brain sections were processed and stained with hematoxylin and eosin (H&E) and Perls' Prussian blue for hemosiderin deposits, levels 2, 3, 4, as described in Bolon B et al., 2013, and one additional slide at hypothalamus level (level 2′).\nProcedure for brain collection: Cerebellum was separated from cerebrum. Remaining cerebrum (from the anterior to level 5) was transferred into formalin for pathology.\nBrain sections stained with haematoxylin and eosin and with Perls' Prussian blue, were examined under a light microscope. The distribution, size and staining intensity of hemosiderin deposits in Perls' Prussian blue-stained sections were assessed based on the grading scheme in Table 37."}, "[4]": {"conditions": "aged APP23 mice, brain, H&E, after 3 months treatment"}, "[5]": {"conditions": "aged APP23 mice, brain, H&E, after 3 months treatment, Grade 1 = minimal"}, "[6]": {"conditions": "aged APP23 mice, brain, H&E, after 3 months treatment, grade 2 = slight"}, "[7]": {"conditions": "aged APP23 mice, brain, after 3 months treatment"}, "[8]": {"conditions": "aged APP23 mice, brain, after 3 months treatment, Grade 1 = minimal"}, "[9]": {"conditions": "aged APP23 mice, brain, after 3 months treatment, grade 2 = slight"}}, "note": "Where two headings read alike, the source gives them in different places."}
{"compound": "C[C@@]1(c2nc(NC(=O)c3ncc(C(F)(F)F)cc3Cl)ccc2F)CO[C@@](C)(C(F)(F)F)C(N)=N1", "note": "[Compound 1, N-(6-((3R,6R)-5-amino-3,6-dimethyl-6-(trifluoromethyl)-3,6-dihydro-2H-1,4-oxazin-3-yl)-5-fluoropyridin-2-yl)-3-chloro-5-(trifluoromethyl)picolinamide]", "values": [{"measurement": "exposure reduction 4 h/24 h", "setting": "[1]", "value": "2-5 fold"}, {"measurement": "AUCbrain (AUC0-24 h)", "setting": "[1]; 3 umol/kg", "value": 8.67, "unit": "µmol·h/kg"}, {"measurement": "AUCbrain (AUC0-24 h)", "setting": "[1]; 10 umol/kg", "value": 15.83, "unit": "µmol·h/kg"}, {"measurement": "AUCbrain (AUC0-24 h)", "setting": "[1]; 30 umol/kg", "value": 49.82, "unit": "µmol·h/kg"}, {"measurement": "concentration at 13 weeks", "setting": "[2]; brain (cerebellum, level 7), end of the study", "value": 4030, "unit": "ng/g"}, {"measurement": "Kp at 96 day", "setting": "[2]; brain / plasma, day 96, read-out: brain concentration compared to plasma, range", "value": "2.2 to 6.1"}, {"measurement": "Kp at 13 weeks", "setting": "[2]; brain / plasma, end of the study, read-out: average of the ratio brain over plasma", "value": 3.3}, {"measurement": "concentration at 13 weeks", "setting": "[2]; plasma, end of the study", "value": 1210, "unit": "ng/mL"}, {"measurement": "Blood vessel inflammation", "setting": "[3]; 3 months treatment", "value": "least marked"}, {"measurement": "mineralisation of plaques in the thalamus", "setting": "[3]; 3 months treatment", "value": "no indication of an effect"}, {"measurement": "thrombus formation in affected blood vessels or small areas of previous necrosis (infarct)", "setting": "[3]; 3 months treatment", "value": "not"}, {"measurement": "extent of plaque formation", "setting": "[3]; 3 months treatment, compared to the other groups", "value": "appeared reduced in some"}, {"measurement": "Amyloid plaques, % affected", "setting": "[3]; [4]", "value": 100, "unit": "%"}, {"measurement": "Haemorrhage, % affected", "setting": "[3]; [4]", "value": 7, "unit": "%"}, {"measurement": "Inflammation, vessel, % affected", "setting": "[3]; [4]", "value": 27, "unit": "%"}, {"measurement": "Haemorrhage, number of animals with Grade 1", "setting": "[3]; [5]", "value": 1}, {"measurement": "Inflammation, vessel, number of animals with Grade 1", "setting": "[3]; [5]", "value": 4}, {"measurement": "Haemorrhage, number of animals with Grade 2", "setting": "[3]; [6]", "value": 0}, {"measurement": "Inflammation, vessel, number of animals with Grade 2", "setting": "[3]; [6]", "value": 0}, {"measurement": "Amyloid plaques, number of animals with Grade 2", "setting": "[3]; aged APP23 mice, brain, H&E, after 3 months treatment, grade 2 = slight (notably fewer plaques than controls)", "value": 4}, {"measurement": "Amyloid plaques, number of animals with Grade 3", "setting": "[3]; aged APP23 mice, brain, H&E, after 3 months treatment, grade 3 = moderate (extent in controls)", "value": 11}, {"measurement": "Haemosiderin (Perls' staining), % affected", "setting": "[3]; [7]", "value": 47, "unit": "%"}, {"measurement": "Infarct, % affected", "setting": "[3]; [7]", "value": 0, "unit": "%"}, {"measurement": "Mineralisation, % affected", "setting": "[3]; [7]", "value": 13, "unit": "%"}, {"measurement": "Thrombus, % affected", "setting": "[3]; [7]", "value": 0, "unit": "%"}, {"measurement": "Haemosiderin (Perls' staining), number of animals with Grade 1", "setting": "[3]; [8]", "value": 7}, {"measurement": "Infarct, number of animals with Grade 1", "setting": "[3]; [8]", "value": 0}, {"measurement": "Mineralisation, number of animals with Grade 1", "setting": "[3]; [8]", "value": 2}, {"measurement": "Thrombus, number of animals with Grade 1", "setting": "[3]; [8]", "value": 0}, {"measurement": "Haemosiderin (Perls' staining), number of animals with Grade 2", "setting": "[3]; [9]", "value": 0}, {"measurement": "Mineralisation, number of animals with Grade 2", "setting": "[3]; [9]", "value": 0}, {"measurement": "Thrombus, number of animals with Grade 2", "setting": "[3]; [9]", "value": 0}, {"measurement": "Haemosiderin (Perls' staining), number of animals with Grade 3", "setting": "[3]; aged APP23 mice, brain, after 3 months treatment, grade 3 = moderate", "value": 0}]}
